Measurements reported in patent publication US7514411B2, “Acylated benzylmaltosides as inhibitors of smooth muscle cell proliferation” (Wyeth, priority 1998, dated 2009).
Structures can show the parent of a compound that is named as a salt.

Tested on: not given
Experiment: not given
Settings: not given

With O=C(Nc1cc(CO[C@@H]2O[C@H](CO)[C@@H](O[C@H]3O[C@H](CO)[C@@H](O)[C@H](O)[C@H]3O)[C@H](O)[C@H]2O)ccc1Cl)c1cccnc1 [Example 16, N-[2-Chloro-5-[[(4-O-α-D-glucopyranosyl-β-D-glucopyranosyl)oxy]methyl]phenyl]-3-pyridinecarboxamide] the melting point was > 106 °C (dec.).

Tested on: Porcine Smooth Muscle Cell
Experiment: Effects of compounds on cell proliferation using 3H thymidine incorporation
Assay type: cell-based
Settings: @ 50 μM
Protocol: The compounds of this invention are useful as antiproliferative agents. The following procedures show the evaluation of representative compounds of this invention in standard pharmacological test procedure which measured ability of the evaluated compound to inhibit smooth muscle cell proliferation
Effects of Compounds On Cell Proliferation Using ^3H Thymidine Incorporation
Human and porcine smooth muscle cells were tested in early passage (generally passage 3-7) at sub-confluent conditions. Cultures were grown in 16 mm (24 well) multi-well culture dishes in medium 199 supplemented with 10% fetal bovine serum and 2% antibiotic/antimycotic. At sub-confluence, the cells were placed in a defined serum free medium (AIM-V; Gibco) for 24-48 h prior to initiating the experimental protocol.
Compounds were added to each well at 50 fold dilution (20 μL/well) and the plates were incubated for 24-36 h at 37° C. in 5% CO2. Compounds were initially dissolved in 50% ethanol and serially diluted into media. Compounds were routinely evaluated at concentrations from 1 to 100 μM. As a control, grade II porcine intestinal mucosal heparin (sodium salt) was routinely evaluated in all cell preparations at concentrations from 0.1 to 100 μg/mL.
At the completion of the test procedure, plates were placed on ice, washed three times with ice cold phosphate buffered saline (PBS) and incubated in ice cold 10% trichloroacetic acid (TCA) got 30 min to remove acid soluble proteins. Solution was transferred to scintillation vials containing 0.4 N HCl (500 μL/vial to neutralize NaOH) and each well was rinsed two times with water (500 μL) for a total volume of 2 mL/vial.
Data was obtained, in triplicate, for both control and experimental samples. Control (100%) data was obtained from maximally stimulated cells, as the result of growth factor or serum stimulation. Experimental data was obtained from cells maximally stimulated with growth factor or serum and treated with compound. Data are expressed as an IC50 or percent inhibition in Table I below.

First: O=[N+]([O-])c1cc(CS[C@@H]2O[C@H](CO)[C@@H](O[C@H]3O[C@H](CO)[C@@H](O)[C@H](O)[C@H]3O)[C@H](O)[C@H]2O)ccc1Cl [Example 18, (4-Chloro-3-nitro-benzyl)-1-deoxy-1-thio-β-D-maltoside]
Second: CC(=O)Nc1cc(CSC2OC(CO)C(OC3OC(CO)C(O)C(O)C3O)C(O)C2O)ccc1Cl (stereo not drawn) [Example 19]
The “Porcine Smooth Muscle Cell Antiproliferation percent inhibition” value of the first is lower: 25% @ 50 for the first, 28% @ 50 for the second.

Same assay, conditions: @ 100 μM

In the case of Cc1ccc(CO[C@@H]2O[C@H](Cn3cnc([N+](=O)[O-])c3)[C@@H](O[C@H]3O[C@H](Cn4cnc([N+](=O)[O-])c4)[C@@H](O)[C@H](O)[C@H]3O)[C@H](O)[C@H]2O)cc1[N+](=O)[O-] [Example 22, 5-{[6,6′-Dideoxy-6,6′-bis(4-nitro-imidazol-1-yl)-β-maltosyl]-oxy-methyl}-2-methyl-1-nitrobenzene], the “Porcine Smooth Muscle Cell Antiproliferation percent inhibition” value is reported as 23% @ 100.

Same assay, conditions: @ 500 μM

With CC(=O)Nc1cc(COC2OC(CO)C(OC3OC(CO)C(O)C(O)C3O)C(O)C2O)ccc1Cl [Example 9, N-[2-Chloro-5-(β-D-maltosyl-oxymethyl)-phenyl]-acetamide] the “Porcine Smooth Muscle Cell Antiproliferation percent inhibition” value was 0% @ 500.

Same assay, conditions: Sus scrofa; @ 50 μM; read-out: Porcine Smooth Muscle Cell Antiproliferation percent inhibition

O=C(Nc1cc(CO[C@@H]2O[C@H](CO)[C@@H](O[C@H]3O[C@H](CO)[C@@H](O)[C@H](O)[C@H]3O)[C@H](O)[C@H]2O)ccc1Cl)c1cccnc1 [Example 16, N-[2-Chloro-5-[[(4-O-α-D-glucopyranosyl-β-D-glucopyranosyl)oxy]methyl]phenyl]-3-pyridinecarboxamide] showed an inhibition at 50 µM of 18%.

Same assay, conditions: serum/growth factor stimulated cells, 3H thymidine incorporation, 24-36 h; read-out: Porcine Smooth Muscle Cell Antiproliferation IC50

First: CC(=O)OC[C@H]1O[C@H](O[C@H]2[C@H](OC(C)=O)[C@@H](OC(C)=O)[C@H](OCc3ccc(Cl)c([N+](=O)[O-])c3)O[C@@H]2COC(C)=O)[C@H](OC(C)=O)[C@@H](OC(C)=O)[C@@H]1OC(C)=O [Example 1, 4-Chloro-3-nitro-benzyl-β-D-maltoside heptaacetate]
Second: CC(=O)OC[C@H]1O[C@H](O[C@H]2[C@H](OC(C)=O)[C@@H](OC(C)=O)[C@H](OCc3ccc(C#N)c([N+](=O)[O-])c3)O[C@@H]2COC(C)=O)[C@H](OC(C)=O)[C@@H](OC(C)=O)[C@@H]1OC(C)=O [Example 8, 5-[(Hepta-O-acetyl-β-D-maltosyl)-oxy-methyl]-2-cyano-1-nitrobenzene]
The IC50 of the first is 2.4-fold lower: 0.85 µM for the first, 2.05 µM for the second. The first is the more potent here.

First: CC(=O)OC[C@H]1O[C@H](O[C@H]2[C@H](OC(C)=O)[C@@H](OC(C)=O)[C@H](OCc3ccc(Cl)c(NC(=O)[C@@H](N)CC(=O)OC(C)(C)C)c3)O[C@@H]2COC(C)=O)[C@H](OC(C)=O)[C@@H](OC(C)=O)[C@@H]1OC(C)=O [Example 2, N-{5-[(Hepta-O-acetyl-β-D-maltosyloxy)-methyl]-2-chloro-phenyl}-L-aspartamide-γ-tert-butyl ester]
Second: CC(=O)Nc1cc(CS[C@@H]2O[C@H](COC(C)=O)[C@@H](O[C@H]3O[C@H](COC(C)=O)[C@@H](OC(C)=O)[C@H](OC(C)=O)[C@H]3OC(C)=O)[C@H](OC(C)=O)[C@H]2OC(C)=O)ccc1Cl [Example 7]
The IC50 of the first is 1.7-fold lower: 4.61 µM for the first, 7.97 µM for the second. The first is the more potent here.

Compared with CC(=O)OC[C@H]1O[C@H](O[C@H]2[C@H](OC(C)=O)[C@@H](OC(C)=O)[C@H](OCc3ccc(Cl)c(NC(=O)[C@H](C)NC(=O)OCC4c5ccccc5-c5ccccc54)c3)O[C@@H]2COC(C)=O)[C@H](OC(C)=O)[C@@H](OC(C)=O)[C@@H]1OC(C)=O [Example 3, N-{2-Chloro-5-[(2,2′,3,3′,4′,6,6′)-hepta-O-acetyl-β-D-maltosyl-oxymethyl]-phenyl}-(9H-fluoren-9-ylmethoxycarbonyl)-L-alaninamide], CC(=O)OC[C@H]1O[C@H](O[C@H]2[C@H](OC(C)=O)[C@@H](OC(C)=O)[C@H](OCc3ccc(Cl)c(NC(=O)c4ccc(C(=O)c5ccccc5)cc4)c3)O[C@@H]2COC(C)=O)[C@H](OC(C)=O)[C@@H](OC(C)=O)[C@@H]1OC(C)=O [Example 4, 4-Benzoyl-N-{2-chloro-5-[(2,2′,3,3′,4′,6,6′-hepta-O-acetyl-β-D-maltosyl)-oxy-methyl]-phenyl}-benzamide] is 10-fold lower in IC50: 1.71 µM for the first, 0.164 µM for the second. The second is the more potent here.

First: CC(=O)OC[C@H]1O[C@@H](SCc2ccc(Cl)c([N+](=O)[O-])c2)[C@H](OC(C)=O)[C@@H](OC(C)=O)[C@@H]1O[C@H]1O[C@H](COC(C)=O)[C@@H](OC(C)=O)[C@H](OC(C)=O)[C@H]1OC(C)=O [Example 5, (4-Chloro-3-nitro-benzyl)-hepta-O-acetyl-1-thio-β-D-maltoside]
Second: CC(=O)OC[C@H]1O[C@@H](SCc2ccc(Cl)c(N)c2)[C@H](OC(C)=O)[C@@H](OC(C)=O)[C@@H]1O[C@H]1O[C@H](COC(C)=O)[C@@H](OC(C)=O)[C@H](OC(C)=O)[C@H]1OC(C)=O [Example 6, (3-Amino-4-chloro-benzyl) hepta-O-acetyl-1-thio-β-D-maltoside]
The IC50 of the first is 1.7-fold higher: 1.14 µM for the first, 0.667 µM for the second.

Compared with CC(=O)Nc1cc(CO[C@@H]2O[C@H](CO[Si](C)(C)C(C)(C)C)[C@@H](O[C@H]3O[C@H](CO[Si](C)(C)C(C)(C)C)[C@@H](O)[C@H](O)[C@H]3O)[C@H](O)[C@H]2O)ccc1C [Example 10, N-{5-[6,6′-Di-O-(tert-butyl-dimethyl-silyl)-β-D-maltosyloxy-methyl]-2-methyl-phenyl}-acetamide], CC(=O)Nc1cc(CO[C@@H]2O[C@H](CO[Si](C)(C)C(C)(C)C)[C@@H](O[C@H]3O[C@H](CO[Si](C)(C)C(C)(C)C)[C@@H](O)[C@H](O)[C@H]3O)[C@H](O)[C@H]2O)ccc1Cl [Example 11, N-{2-Chloro-5-[6,6′-di-O-(tert-butyl-dimethyl-silvl)-β-D-maltosyloxy-methyl]-phenyl}-acetamide] is 1.6-fold lower in IC50: 6.1 µM for the first, 3.9 µM for the second. The second is the more potent here.

First: CC(=O)Nc1cc(CO[C@@H]2O[C@H](COC(=O)c3ccccc3)[C@@H](O[C@H]3O[C@H](COC(=O)c4ccccc4)[C@@H](O)[C@H](O)[C@H]3O)[C@H](O)[C@H]2O)ccc1Cl [Example 12, N-{2-Chloro-5-[([6,6′-di-O-benzoyl-β-D-maltosyl]oxy)methyl]phenyl}-acetamide]
Second: O=C(Nc1cc(COC2OC(COC(=O)c3ccccc3)C(OC3OC(CO)C(O)C(O)C3O)C(O)C2O)ccc1Cl)c1cccnc1 (stereo not drawn) [Example 17, Benzoic acid 6-{4-chloro-3-[(pyridine-3-carbonyl)-amino]-benzyloxy}-4,5-dihydoxy-3-(3,4,5-trihydroxy-6-hydroxymethyl-tetrahydro-pyran-2-yloxy)-tetrahydro-pyran-2-ylmethyl ester hydrochloride]
The IC50 of the first is higher: 0.39 to 2.2 µM for the first, 0.245 µM for the second.

Going from CC(=O)Nc1cc(CO[C@@H]2O[C@H](COC(=O)c3ccccc3)[C@@H](O[C@H]3O[C@H](COC(=O)c4ccccc4)[C@@H](OC(C)=O)[C@H](OC(C)=O)[C@H]3OC(C)=O)[C@H](OC(C)=O)[C@H]2OC(C)=O)ccc1Cl [Example 13, N-{2-Chloro-5-[([6,6′-di-O-benzoyl-2,2′,3,3′,4′-penta-acetyl-β-D-maltosyl]oxy)methyl]phenyl}-acetamide] to CC(=O)O[C@@H]1[C@@H](OC(C)=O)[C@@H](O[C@H]2[C@H](OC(C)=O)[C@@H](OC(C)=O)[C@H](OCc3ccc(C)c([N+](=O)[O-])c3)O[C@@H]2COS(=O)(=O)c2ccc(C)cc2)O[C@H](COS(=O)(=O)c2ccc(C)cc2)[C@H]1OC(C)=O [Example 21, 5-{[2,2′,3,3′,4′-Penta-O-acetyl-6,6′-bis-O-(4-toluenesulfonyl)-β-maltosyl]-oxy-methyl}-2-methyl-1-nitrobenzene], the IC50 rises from 0.36 µM to 67.4 µM (190-fold).

Going from O=C(OC[C@H]1O[C@H](O[C@H]2[C@H](O)[C@@H](O)[C@H](OCc3ccc(Cl)c([N+](=O)[O-])c3)O[C@@H]2COC(=O)c2cccnc2)[C@H](O)[C@@H](O)[C@@H]1O)c1cccnc1 [Example 14, (4-Chloro-3-nitrophenyl)methyl-4-O-[6-O-(3-pyridinylcarbonyl)-α-D-glucopyranosyl]-β-D-glucopyranoside-6-(3-pyridinecarboxylate)] to O=C(OC[C@H]1O[C@H](O[C@H]2[C@H](O)[C@@H](O)[C@H](OCc3ccc(Cl)c([N+](=O)[O-])c3)O[C@@H]2CO)[C@H](O)[C@@H](O)[C@@H]1O)c1cccnc1 [Example 15, (4-Chloro-3-nitrophenyl)methyl-4-O-[6-O-(3-pyridinylcarbonyl)-α-D-glucopyranosyl]-β-D-glucopyranoside], the IC50 rises from 6.56 µM to 73.2 µM (11-fold).

Compared with Cc1ccc(S(=O)(=O)OC[C@H]2O[C@H](O[C@H]3[C@H](O)[C@@H](O)[C@H](OCc4ccc(C)c([N+](=O)[O-])c4)O[C@@H]3COS(=O)(=O)c3ccc(C)cc3)[C@H](O)[C@@H](O)[C@@H]2O)cc1 [Example 20, 5-{[6,6′-Bis-O-(4-toluenesulfonyl)-β-maltosyl]-oxy-methyl}-2-methyl-1-nitrobenzene], CC(=O)O[C@@H]1[C@@H](OC(C)=O)[C@@H](O[C@H]2[C@H](OC(C)=O)[C@@H](OC(C)=O)[C@H](OCc3ccc(C)c([N+](=O)[O-])c3)O[C@@H]2Cn2cnc([N+](=O)[O-])c2)O[C@H](Cn2cnc([N+](=O)[O-])c2)[C@H]1OC(C)=O [Example 23, 5-{[2,2′,3,3′,4′-Penta-O-acetyl-6,6′-dideoxy-6,6′-bis(4-nitro-imidazol-1-yl)-β-maltosyl]-oxy-methyl}-2-methyl-1-nitrobenzene] is 6.4-fold higher in IC50: 0.74 µM for the first, 4.7 µM for the second.
